From ChEMBL document CHEMBL1136369, “N,N-disubstituted piperazines: synthesis and affinities at alpha4beta2(*) and alpha7(*) neuronal nicotinic acetylcholine receptors” (Bioorg Med Chem Lett, 2003) come the findings set out here.

pKi: −log10 of the molar value.

For experiment [1], the target named is Neuronal acetylcholine receptor subunit alpha-7 (Rattus norvegicus, UniProt Q05941). Nature of the experiment: Binding affinity towards alpha-7 neuronal nicotinic acetylcholine receptor (nAChRs) measured by using the inhibition of [3H]-MLA binding to whole brain membrane.
In experiment [2] the target is Neuronal acetylcholine receptor; alpha4/beta2 (Rattus norvegicus, UniProt P09483+P12390). In words: Binding affinity towards alpha4-beta2 measured by using the inhibition of [3H]NIC binding to rat striatal membrane. On the set-up: species or system Striatum.
Neuronal acetylcholine receptor; alpha4/beta2, sequence (P09483 whole entry): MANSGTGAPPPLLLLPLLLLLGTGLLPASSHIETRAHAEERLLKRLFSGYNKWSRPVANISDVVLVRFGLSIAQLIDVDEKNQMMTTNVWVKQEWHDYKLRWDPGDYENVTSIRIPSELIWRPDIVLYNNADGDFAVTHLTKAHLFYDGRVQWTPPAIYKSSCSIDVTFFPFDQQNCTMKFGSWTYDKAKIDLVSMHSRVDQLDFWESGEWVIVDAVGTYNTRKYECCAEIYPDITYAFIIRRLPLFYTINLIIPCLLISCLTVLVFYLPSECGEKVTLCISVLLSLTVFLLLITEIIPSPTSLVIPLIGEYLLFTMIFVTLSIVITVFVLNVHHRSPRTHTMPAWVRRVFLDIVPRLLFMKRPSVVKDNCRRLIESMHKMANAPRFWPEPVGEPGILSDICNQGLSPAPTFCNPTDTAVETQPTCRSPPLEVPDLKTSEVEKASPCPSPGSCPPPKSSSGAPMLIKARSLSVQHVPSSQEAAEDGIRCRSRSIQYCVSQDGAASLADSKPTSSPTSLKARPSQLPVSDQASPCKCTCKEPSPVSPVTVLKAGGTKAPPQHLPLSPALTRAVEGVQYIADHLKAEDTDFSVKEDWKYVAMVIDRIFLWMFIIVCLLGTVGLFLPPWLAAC
Neuronal acetylcholine receptor; alpha4/beta2, sequence (P12390 whole entry): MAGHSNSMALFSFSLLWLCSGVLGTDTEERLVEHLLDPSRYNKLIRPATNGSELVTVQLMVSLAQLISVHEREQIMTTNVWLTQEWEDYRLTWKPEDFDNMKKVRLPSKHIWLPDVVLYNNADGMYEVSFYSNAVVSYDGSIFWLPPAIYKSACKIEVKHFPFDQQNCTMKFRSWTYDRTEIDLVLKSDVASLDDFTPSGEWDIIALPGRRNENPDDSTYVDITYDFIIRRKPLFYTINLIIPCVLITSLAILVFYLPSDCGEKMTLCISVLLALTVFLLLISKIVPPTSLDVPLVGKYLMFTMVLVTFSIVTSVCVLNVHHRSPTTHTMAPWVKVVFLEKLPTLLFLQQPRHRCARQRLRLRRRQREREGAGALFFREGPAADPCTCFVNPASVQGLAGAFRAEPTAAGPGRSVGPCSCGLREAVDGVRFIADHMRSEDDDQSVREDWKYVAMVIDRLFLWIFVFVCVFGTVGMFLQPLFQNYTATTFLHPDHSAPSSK

Neuronal acetylcholine receptor subunit alpha-7, sequence (Q05941 whole entry): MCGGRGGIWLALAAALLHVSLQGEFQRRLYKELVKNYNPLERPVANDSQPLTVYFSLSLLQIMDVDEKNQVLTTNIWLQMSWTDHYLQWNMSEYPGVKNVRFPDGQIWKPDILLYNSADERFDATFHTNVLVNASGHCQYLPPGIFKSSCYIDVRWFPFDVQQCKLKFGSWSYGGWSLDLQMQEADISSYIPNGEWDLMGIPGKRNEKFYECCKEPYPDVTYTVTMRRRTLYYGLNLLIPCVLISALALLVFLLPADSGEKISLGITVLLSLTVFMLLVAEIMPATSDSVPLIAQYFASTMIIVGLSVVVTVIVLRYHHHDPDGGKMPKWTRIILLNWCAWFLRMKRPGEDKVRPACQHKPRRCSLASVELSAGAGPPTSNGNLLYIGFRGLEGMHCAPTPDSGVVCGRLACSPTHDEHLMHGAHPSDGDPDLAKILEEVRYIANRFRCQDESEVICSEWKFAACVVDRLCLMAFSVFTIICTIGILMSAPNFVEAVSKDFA

On to `CN1CCC[C@H]1CN1CCN(Cc2cccnc2)CC1`, for which, in experiment [1], the negative logarithm of the Ki (pKi) – broadly, −log10 of the Ki, conventionally taken in molar units – was less than 4.00. For `O=C([C@@H]1CCCN1)N1CCN(Cc2ccccn2)CC1`, the pKi in experiment [1] and in experiment [2] was less than 4.00 each time. With `CN1CCC[C@H]1CN1CCN(Cc2ccncc2)CC1`, the negative-log Ki (pKi) is less than 4.00 in experiment [1] and 4.41 in experiment [2]. Turning to `c1cncc(CN2CCN(C[C@@H]3CCCN3)CC2)c1`, the negative logarithm of the Ki (pKi) in experiment [1] and in experiment [2] was less than 4.00 in each case.

In the case of `c1cc(CN2CCN(C[C@@H]3CCCN3)CC2)ccn1`, the values for the pKi in experiment [1] and in experiment [2] were less than 4.00 and 4.34, respectively. As for `O=C(C1CCCCN1)N1CCN(Cc2ccncc2)CC1` (racemic), the pKi is less than 4.00 in experiment [1] and 4.22 in experiment [2]. For `CN1CCCCC1CN1CCN(Cc2cccnc2)CC1` (racemic), the negative logarithm of the Ki (pKi) in experiment [1] is less than 4.00. Regarding `O=C(C1CCCCN1)N1CCN(Cc2ccccn2)CC1` (racemic), the pKi in experiment [1] and in experiment [2] was less than 4.00 in each case. For `CN1CCCCC1CN1CCN(Cc2ccncc2)CC1` (racemic), the values for the pKi in experiment [1] and in experiment [2] were less than 4.00 and 4.38, respectively. For `c1cncc(CN2CCN(CC3CCCCN3)CC2)c1` (racemic), the negative logarithm of the Ki (pKi) in experiment [1] and in experiment [2] was less than 4.00 in each case. Consider `c1cc(CN2CCN(CC3CCCCN3)CC2)ccn1` (racemic), for which the pKi in experiment [1] and in experiment [2] was less than 4.00 throughout. In the case of `O=C(C1CCCCN1)N1CCN(Cc2cccnc2)CC1` (racemic) [SCR01020], the pKi in experiment [1] is less than 4.00; in experiment [2] it was 4.26. For `c1cncc([C@@H]2CCCN2)c1` [NORNICOTINE], the pKi in experiment [1] is 5.92.
